Article PMC5078040 (Oncotarget, 2016)

Columns and labels:
Experiment in all cases: KinomeScan
Assay type in all cases: binding
Conditions in all cases: 1uM
ABL1-nonphosphorylated = target: T1, ABL1-nonphosphorylated (Homo sapiens, UniProt P00519)
T1 construct: purchased DiscoveRx KINOMEscan

ACVR1B = target: T2, ACVR1B (Homo sapiens, UniProt P36896)
T2 construct: purchased DiscoveRx KINOMEscan

ALK = target: T3, ALK (Homo sapiens, UniProt Q9UM73)
T3 construct: purchased DiscoveRx KINOMEscan

ALK(C1156Y) = target: T4, ALK(C1156Y) (Homo sapiens, UniProt Q9UM73, C1156Y)
T4 construct: purchased DiscoveRx KINOMEscan

BRSK2 = target: T5, BRSK2 (Homo sapiens, UniProt Q8IWQ3)
T5 construct: purchased DiscoveRx KINOMEscan

CDK9 = target: T6, CDK9 (Homo sapiens, UniProt P50750)
T6 construct: purchased DiscoveRx KINOMEscan
T6 sequence (P50750 whole entry): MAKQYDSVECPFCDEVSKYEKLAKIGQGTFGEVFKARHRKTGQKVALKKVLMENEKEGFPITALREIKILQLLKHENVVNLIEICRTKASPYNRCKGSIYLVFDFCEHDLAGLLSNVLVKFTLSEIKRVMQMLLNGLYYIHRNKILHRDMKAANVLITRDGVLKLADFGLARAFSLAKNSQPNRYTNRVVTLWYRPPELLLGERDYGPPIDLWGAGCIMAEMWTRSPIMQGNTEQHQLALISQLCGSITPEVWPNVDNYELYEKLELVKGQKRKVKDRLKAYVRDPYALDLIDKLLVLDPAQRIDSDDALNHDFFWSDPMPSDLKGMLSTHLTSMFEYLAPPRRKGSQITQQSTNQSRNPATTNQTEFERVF

CDKL5 = target: T7, CDKL5 (Homo sapiens, UniProt O76039)
T7 construct: purchased DiscoveRx KINOMEscan

DCAMKL3 = target: T8, DCAMKL3 (Homo sapiens, UniProt Q9C098)
T8 construct: purchased DiscoveRx KINOMEscan

DRAK2 = target: T9, DRAK2 (Homo sapiens, UniProt O94768)
T9 construct: purchased DiscoveRx KINOMEscan
T9 sequence (O94768 whole entry): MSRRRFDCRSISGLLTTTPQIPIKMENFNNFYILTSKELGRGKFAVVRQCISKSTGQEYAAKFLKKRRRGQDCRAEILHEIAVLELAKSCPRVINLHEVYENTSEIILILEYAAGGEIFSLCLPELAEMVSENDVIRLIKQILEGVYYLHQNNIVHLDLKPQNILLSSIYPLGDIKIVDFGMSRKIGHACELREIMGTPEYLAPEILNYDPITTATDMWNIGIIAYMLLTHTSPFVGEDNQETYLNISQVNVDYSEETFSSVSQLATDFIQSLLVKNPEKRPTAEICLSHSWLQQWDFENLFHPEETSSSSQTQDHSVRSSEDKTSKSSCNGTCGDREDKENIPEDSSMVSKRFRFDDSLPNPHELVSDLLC

EGFR(L858R) = target: T10, EGFR(L858R) (Homo sapiens, UniProt P00533, L858R)
T10 construct: purchased DiscoveRx KINOMEscan

EPHA6 = target: T11, EPHA6 (Homo sapiens, UniProt Q9UF33)
T11 construct: purchased DiscoveRx KINOMEscan

EPHA7 = target: T12, EPHA7 (Homo sapiens, UniProt Q15375)
T12 construct: purchased DiscoveRx KINOMEscan

EPHB3 = target: T13, EPHB3 (Homo sapiens, UniProt P54753)
T13 construct: purchased DiscoveRx KINOMEscan
T13 sequence (P54753 34-998): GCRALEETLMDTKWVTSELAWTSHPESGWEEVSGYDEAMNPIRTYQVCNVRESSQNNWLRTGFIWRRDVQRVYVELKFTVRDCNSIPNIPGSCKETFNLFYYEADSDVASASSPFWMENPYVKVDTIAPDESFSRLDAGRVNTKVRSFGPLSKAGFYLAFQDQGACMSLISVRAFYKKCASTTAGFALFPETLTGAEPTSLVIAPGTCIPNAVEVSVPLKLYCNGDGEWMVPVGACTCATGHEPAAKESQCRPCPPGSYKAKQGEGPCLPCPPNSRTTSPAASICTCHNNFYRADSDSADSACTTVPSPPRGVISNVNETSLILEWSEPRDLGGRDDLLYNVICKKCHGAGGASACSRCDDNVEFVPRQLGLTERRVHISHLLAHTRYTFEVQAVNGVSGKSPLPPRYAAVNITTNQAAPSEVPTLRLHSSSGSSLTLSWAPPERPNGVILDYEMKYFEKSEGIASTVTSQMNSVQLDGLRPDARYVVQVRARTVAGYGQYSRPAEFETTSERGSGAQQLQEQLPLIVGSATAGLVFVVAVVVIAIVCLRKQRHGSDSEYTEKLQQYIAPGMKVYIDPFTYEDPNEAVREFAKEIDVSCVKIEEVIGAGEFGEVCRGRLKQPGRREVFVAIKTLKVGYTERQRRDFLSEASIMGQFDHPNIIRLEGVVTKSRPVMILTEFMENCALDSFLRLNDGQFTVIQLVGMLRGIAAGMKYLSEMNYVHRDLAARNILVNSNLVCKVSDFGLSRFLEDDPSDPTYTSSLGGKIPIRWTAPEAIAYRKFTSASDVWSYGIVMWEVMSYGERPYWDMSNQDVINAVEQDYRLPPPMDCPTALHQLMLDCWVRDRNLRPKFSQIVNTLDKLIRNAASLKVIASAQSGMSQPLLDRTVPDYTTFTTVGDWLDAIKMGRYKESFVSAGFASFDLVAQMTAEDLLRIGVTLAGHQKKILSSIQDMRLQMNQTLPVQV

FGFR3(G697C) = target: T14, FGFR3(G697C) (Homo sapiens, UniProt P22607, G697C)
T14 construct: purchased DiscoveRx KINOMEscan
T14 sequence (P22607 23-806 G697C): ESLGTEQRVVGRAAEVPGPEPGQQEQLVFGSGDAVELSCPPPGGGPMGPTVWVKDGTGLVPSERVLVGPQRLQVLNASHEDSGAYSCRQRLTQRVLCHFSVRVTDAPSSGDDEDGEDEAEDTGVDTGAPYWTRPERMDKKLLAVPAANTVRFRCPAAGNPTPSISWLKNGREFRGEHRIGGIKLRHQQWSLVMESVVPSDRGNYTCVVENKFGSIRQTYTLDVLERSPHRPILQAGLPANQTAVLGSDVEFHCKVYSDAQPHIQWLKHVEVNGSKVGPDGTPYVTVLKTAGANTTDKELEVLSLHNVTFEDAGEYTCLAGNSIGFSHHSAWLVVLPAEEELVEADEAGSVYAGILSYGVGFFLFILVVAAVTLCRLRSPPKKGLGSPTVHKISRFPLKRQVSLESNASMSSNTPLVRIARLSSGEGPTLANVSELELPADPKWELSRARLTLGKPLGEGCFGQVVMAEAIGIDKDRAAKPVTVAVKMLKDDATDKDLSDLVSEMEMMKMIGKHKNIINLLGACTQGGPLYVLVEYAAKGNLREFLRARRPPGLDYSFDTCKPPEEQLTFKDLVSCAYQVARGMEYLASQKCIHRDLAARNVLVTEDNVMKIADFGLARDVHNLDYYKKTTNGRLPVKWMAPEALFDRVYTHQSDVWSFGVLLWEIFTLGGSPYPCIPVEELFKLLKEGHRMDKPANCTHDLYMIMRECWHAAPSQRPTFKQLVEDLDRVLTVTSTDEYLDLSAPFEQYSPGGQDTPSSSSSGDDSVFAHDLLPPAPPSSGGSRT

HIPK2 = target: T15, HIPK2 (Homo sapiens, UniProt Q9H2X6)
T15 construct: purchased DiscoveRx KINOMEscan

IKK-beta = target: T16, IKK-beta (Homo sapiens, UniProt O14920)
T16 construct: purchased DiscoveRx KINOMEscan

KIT = target: T17, KIT (Homo sapiens, UniProt P10721)
T17 construct: purchased DiscoveRx KINOMEscan

LZK = target: T18, LZK (Homo sapiens, UniProt O43283)
T18 construct: purchased DiscoveRx KINOMEscan
T18 sequence (O43283 whole entry): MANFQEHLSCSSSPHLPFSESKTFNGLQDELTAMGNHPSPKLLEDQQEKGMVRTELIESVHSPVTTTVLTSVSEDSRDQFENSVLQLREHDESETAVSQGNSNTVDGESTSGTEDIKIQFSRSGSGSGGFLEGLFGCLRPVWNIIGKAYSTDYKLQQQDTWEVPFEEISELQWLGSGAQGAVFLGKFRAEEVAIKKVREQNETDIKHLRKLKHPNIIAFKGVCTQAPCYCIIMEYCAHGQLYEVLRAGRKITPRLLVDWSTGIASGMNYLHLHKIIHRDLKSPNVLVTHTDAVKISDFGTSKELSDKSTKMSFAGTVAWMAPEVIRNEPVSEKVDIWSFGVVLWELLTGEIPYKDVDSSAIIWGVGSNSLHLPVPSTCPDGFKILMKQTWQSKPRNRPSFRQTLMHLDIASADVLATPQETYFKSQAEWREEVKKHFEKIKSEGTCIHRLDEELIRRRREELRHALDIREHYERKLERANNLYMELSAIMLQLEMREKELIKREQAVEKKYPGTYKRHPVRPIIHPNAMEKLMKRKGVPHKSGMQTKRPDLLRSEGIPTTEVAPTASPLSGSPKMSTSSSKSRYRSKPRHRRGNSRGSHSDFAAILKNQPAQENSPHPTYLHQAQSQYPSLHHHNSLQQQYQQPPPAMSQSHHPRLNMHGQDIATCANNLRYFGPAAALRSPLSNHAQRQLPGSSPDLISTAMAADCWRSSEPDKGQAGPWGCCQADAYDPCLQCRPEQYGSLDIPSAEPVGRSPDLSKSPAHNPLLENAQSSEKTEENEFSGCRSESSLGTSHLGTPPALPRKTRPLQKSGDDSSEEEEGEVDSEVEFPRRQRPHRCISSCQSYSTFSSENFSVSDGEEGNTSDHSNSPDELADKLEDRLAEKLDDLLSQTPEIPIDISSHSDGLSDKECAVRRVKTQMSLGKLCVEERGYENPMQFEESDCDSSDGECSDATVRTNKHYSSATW

MAP4K5 = target: T19, MAP4K5 (Homo sapiens, UniProt Q9Y4K4)
T19 construct: purchased DiscoveRx KINOMEscan

MARK1 = target: T20, MARK1 (Homo sapiens, UniProt Q9P0L2)
T20 construct: purchased DiscoveRx KINOMEscan

MARK2 = target: T21, MARK2 (Homo sapiens, UniProt Q7KZI7)
T21 construct: purchased DiscoveRx KINOMEscan
T21 sequence (Q7KZI7 whole entry): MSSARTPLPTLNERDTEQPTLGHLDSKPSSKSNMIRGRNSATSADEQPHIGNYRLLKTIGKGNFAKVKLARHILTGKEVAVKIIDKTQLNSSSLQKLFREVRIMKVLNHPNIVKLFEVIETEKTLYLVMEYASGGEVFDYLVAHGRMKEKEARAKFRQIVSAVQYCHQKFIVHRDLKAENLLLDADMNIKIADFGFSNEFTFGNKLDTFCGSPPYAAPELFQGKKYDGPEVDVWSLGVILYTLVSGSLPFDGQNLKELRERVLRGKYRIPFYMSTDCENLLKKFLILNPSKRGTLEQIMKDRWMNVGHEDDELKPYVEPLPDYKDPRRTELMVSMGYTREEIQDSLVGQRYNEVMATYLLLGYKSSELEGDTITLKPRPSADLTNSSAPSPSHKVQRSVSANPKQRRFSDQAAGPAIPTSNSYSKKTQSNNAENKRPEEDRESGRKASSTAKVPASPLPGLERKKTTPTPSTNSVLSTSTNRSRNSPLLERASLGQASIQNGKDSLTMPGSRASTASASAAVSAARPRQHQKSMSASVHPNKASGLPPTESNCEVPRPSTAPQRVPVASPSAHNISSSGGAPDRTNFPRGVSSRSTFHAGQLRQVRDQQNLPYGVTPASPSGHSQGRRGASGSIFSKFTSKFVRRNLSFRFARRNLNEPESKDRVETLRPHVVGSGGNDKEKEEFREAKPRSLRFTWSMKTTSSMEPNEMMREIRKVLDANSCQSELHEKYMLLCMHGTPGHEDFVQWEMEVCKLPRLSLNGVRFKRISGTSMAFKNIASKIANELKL

MEK3 = target: T22, MEK3 (Homo sapiens, UniProt P46734)
T22 construct: purchased DiscoveRx KINOMEscan

MET(Y1235D) = target: T23, MET(Y1235D) (Homo sapiens, UniProt P08581, Y1235D)
T23 construct: purchased DiscoveRx KINOMEscan

MKK7 = target: T24, MKK7 (Homo sapiens, UniProt O14733)
T24 construct: purchased DiscoveRx KINOMEscan

MRCKA = target: T25, MRCKA (Homo sapiens, UniProt Q5VT25)
T25 construct: purchased DiscoveRx KINOMEscan

MUSK = target: T26, MUSK (Homo sapiens, UniProt O15146)
T26 construct: purchased DiscoveRx KINOMEscan

MYLK2 = target: T27, MYLK2 (Homo sapiens, UniProt Q9H1R3)
T27 construct: purchased DiscoveRx KINOMEscan

NEK5 = target: T28, NEK5 (Homo sapiens, UniProt Q6P3R8)
T28 construct: purchased DiscoveRx KINOMEscan

NIK = target: T29, NIK (Homo sapiens, UniProt Q99558)
T29 construct: purchased DiscoveRx KINOMEscan

PDPK1 = target: T30, PDPK1 (Homo sapiens, UniProt O15530)
T30 construct: purchased DiscoveRx KINOMEscan

PFPK5(P.falciparum) = target: T31, PFPK5(P.falciparum) (Plasmodium falciparum, UniProt P61075)
T31 construct: purchased DiscoveRx KINOMEscan

PRKG1 = target: T32, PRKG1 (Homo sapiens, UniProt Q13976)
T32 construct: purchased DiscoveRx KINOMEscan
T32 sequence (Q13976 whole entry): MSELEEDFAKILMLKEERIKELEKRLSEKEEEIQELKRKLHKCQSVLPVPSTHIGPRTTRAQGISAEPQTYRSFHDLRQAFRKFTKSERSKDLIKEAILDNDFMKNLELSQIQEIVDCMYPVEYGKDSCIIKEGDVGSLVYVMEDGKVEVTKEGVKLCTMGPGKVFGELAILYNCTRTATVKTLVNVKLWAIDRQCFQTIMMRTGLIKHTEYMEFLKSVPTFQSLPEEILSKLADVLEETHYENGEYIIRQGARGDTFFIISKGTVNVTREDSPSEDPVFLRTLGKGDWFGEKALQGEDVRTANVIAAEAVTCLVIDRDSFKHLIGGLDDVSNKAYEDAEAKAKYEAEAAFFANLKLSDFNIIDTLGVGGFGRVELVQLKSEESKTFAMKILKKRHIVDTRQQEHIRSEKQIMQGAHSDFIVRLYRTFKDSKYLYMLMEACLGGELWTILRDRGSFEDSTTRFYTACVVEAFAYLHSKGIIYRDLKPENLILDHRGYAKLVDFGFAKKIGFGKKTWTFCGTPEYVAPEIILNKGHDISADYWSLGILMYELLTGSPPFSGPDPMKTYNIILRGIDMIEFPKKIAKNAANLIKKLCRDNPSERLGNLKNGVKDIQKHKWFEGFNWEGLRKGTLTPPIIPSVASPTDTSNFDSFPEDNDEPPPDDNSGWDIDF

PRKG2 = target: T33, PRKG2 (Homo sapiens, UniProt Q13237)
T33 construct: purchased DiscoveRx KINOMEscan

RET(V804L) = target: T34, RET(V804L) (Homo sapiens, UniProt P07949, V804L)
T34 construct: purchased DiscoveRx KINOMEscan

[1] = target: T35, RSK1(Kin.Dom.1-N-terminal) (Homo sapiens, UniProt Q15418)
T35 construct: RSK1(Kin.Dom.1-N-terminal); purchased DiscoveRx KINOMEscan

[2] = target: T36, RSK3(Kin.Dom.1-N-terminal) (Homo sapiens, UniProt Q15349)
T36 construct: RSK3(Kin.Dom.1-N-terminal); purchased DiscoveRx KINOMEscan

SNRK = target: T37, SNRK (Homo sapiens, UniProt Q9NRH2)
T37 construct: purchased DiscoveRx KINOMEscan

STK35 = target: T38, STK35 (Homo sapiens, UniProt Q8TDR2)
T38 construct: purchased DiscoveRx KINOMEscan

TAOK1 = target: T39, TAOK1 (Homo sapiens, UniProt Q7L7X3)
T39 construct: purchased DiscoveRx KINOMEscan

TLK2 = target: T40, TLK2 (Homo sapiens, UniProt Q86UE8)
T40 construct: purchased DiscoveRx KINOMEscan

TNK1 = target: T41, TNK1 (Homo sapiens, UniProt Q13470)
T41 construct: purchased DiscoveRx KINOMEscan

TRPM6 = target: T42, TRPM6 (Homo sapiens, UniProt Q9BX84)
T42 construct: purchased DiscoveRx KINOMEscan

VRK2 = target: T43, VRK2 (Homo sapiens, UniProt Q86Y07)
T43 construct: purchased DiscoveRx KINOMEscan

Cc1nc(NC(=O)[C@@H](N)C(C)C)sc1-c1cnc(Cl)c(NS(=O)(=O)c2ccccc2)c1 [PI3KD-IN-015]
KinomeScan ABL1-nonphosphorylated (ABL1-nonphosphorylated): 100
KinomeScan ACVR1B (ACVR1B): 85
KinomeScan ALK (ALK): 100
KinomeScan ALK(C1156Y) (ALK(C1156Y)): 100
KinomeScan BRSK2 (BRSK2): 100
KinomeScan CDK9 (CDK9): 100
KinomeScan CDKL5 (CDKL5): 87
KinomeScan DCAMKL3 (DCAMKL3): 100
KinomeScan DRAK2 (DRAK2): 70
KinomeScan EGFR(L858R) (EGFR(L858R)): 100
KinomeScan EPHA6 (EPHA6): 100
KinomeScan EPHA7 (EPHA7): 100
KinomeScan EPHB3 (EPHB3): 100
KinomeScan FGFR3(G697C) (FGFR3(G697C)): 100
KinomeScan HIPK2 (HIPK2): 100
KinomeScan IKK-beta (IKK-beta): 100
KinomeScan KIT (KIT): 92
KinomeScan LZK (LZK): 92
KinomeScan MAP4K5 (MAP4K5): 100
KinomeScan MARK1 (MARK1): 100
KinomeScan MARK2 (MARK2): 95
KinomeScan MEK3 (MEK3): 93
KinomeScan MET(Y1235D) (MET(Y1235D)): 100
KinomeScan MKK7 (MKK7): 98
KinomeScan MRCKA (MRCKA): 94
KinomeScan MUSK (MUSK): 96
KinomeScan MYLK2 (MYLK2): 84
KinomeScan NEK5 (NEK5): 100
KinomeScan NIK (NIK): 83
KinomeScan PDPK1 (PDPK1): 100
KinomeScan PFPK5(P.falciparum) (PFPK5(P.falciparum)): 100
KinomeScan PRKG1 (PRKG1): 89
KinomeScan PRKG2 (PRKG2): 100
KinomeScan RET(V804L) (RET(V804L)): 97
KinomeScan RSK1(Kin.Dom.1-N-terminal) [1]: 74
KinomeScan RSK3(Kin.Dom.1-N-terminal) [2]: 100
KinomeScan SNRK (SNRK): 100
KinomeScan STK35 (STK35): 92
KinomeScan TAOK1 (TAOK1): 96
KinomeScan TLK2 (TLK2): 100
KinomeScan TNK1 (TNK1): 100
KinomeScan TRPM6 (TRPM6): 100
KinomeScan VRK2 (VRK2): 91
